Consider nine compounds from patent EP0359821A1, “METHOD OF STERILIZING PLANT ANTHERS” (priority 1988, dated 1989).

For data set [1], the system named is Winterweizens Sorte Mironovskaya 808. Put plainly: Field trial of gametocidal activity (anther sterilisation), winter wheat. Format: in vivo, Weizen. The conditions noted are these: 2% aqueous emulsion, 20 kg/ha; for response vs control in vivo at 20000 g/ha: control = 100, read-out: Prozentsatz des Ansetzens bei freier Bestäubung.
In data set [2] the test system is Sommerweizen Sorte Moskovskaya 35. The data set can be described thus: Field trial of gametocidal activity, spring wheat. In kind it is in vivo, Weizen. The following applies: 1% aqueous emulsion; for response vs control in vivo: control = 100, read-out: Prozentsatz des Ansetzens bei freier Bestäubung.
For data set [3], the system named is Diploider Roggen Sorte Chulpan. Put plainly: Field trial of gametocidal activity, diploid rye Chulpan. In kind it is in vivo. The following applies: single compounds, 1% aqueous emulsion, 10 kg/ha; for Anzahl von Körnern der Ähre bei freier Bestäubung / Anzahl von Körnern der Ähre im Isolator: Chulpan; for Anzahl von Körnern der Ähre bei freier Bestäubung / Anzahl von Körnern der Ähre im Isolator / pest or weed control at 10000 g/ha: V. or VI. period; for pest or weed control at 10000 g/ha: read-out: Prozentsatz der Sterilität, Chulpan; for response vs control in vivo at 10000 g/ha: read-out: Prozentsatz des Ansetzens bei freier Bestäubung, Chulpan, control = 100. From the text: (§1) Bei Weizen und Tritikale werden Einzelisolatoren verwendet.
Pflanzen von diploidem Roggen Sorte Chulpan werden in der V. oder VI.
Der Verbrauch an Sterilisationsmitteln beträgt 10 kg/ha.

In the next data set the test system is Sonnenblume Linie VK 119. The data set can be described thus: Field trial of pollen sterilisation, sunflower line VK 119. The following applies: 0,2% aqueous emulsion, 1,2 kg/ha.
Data set [4] relates to Hirse Sorte Mironovskoe 94. The data set can be described thus: Field trial of gametocidal activity, millet Mironovskoe 94. In kind it is in vivo. The conditions noted are these: 1% aqueous emulsion, 10 kg/ha; for Anzahl von Körnern der Rispe bei freier Bestäubung / Anzahl von Körnern der Rispe im Isolator / pest or weed control at 10000 g/ha: V. or VI. period; for pest or weed control at 10000 g/ha: read-out: Prozentsatz der Sterilität; for response vs control in vivo at 10000 g/ha: control = 100, read-out: Prozentsatz des Ansetzens bei freier Bestäubung.

In data set [5] the test system is Diploider Roggen Sorte Gibrid 340/65. The data set can be described thus: Field trial of gametocidal activity, diploid rye Gibrid 340/65. The following applies: Gibrid 340/65 (text: 312/65), 1% aqueous emulsion, 10 kg/ha.
Data set [6] can be described thus: in vivo. The following applies: rat.
Data set [7] concerns Sonnenblume Sorte Peredovik. The data set can be described thus: Field trial of pollen sterilisation, sunflower Peredovik. In kind it is in vivo. The following applies: 0,2% aqueous emulsion, 1,2 kg/ke (so in the source). From the text:
Pflanzen der Sonnenblume Sorte Peredovik werden in der V. oder VI.
Der Verbrauch an Sterilisationsmittel beträgt 1,2 kg/ke.

Data set [8] concerns Tetraploider Roggen Sorte Belta. The data set can be described thus: Field trial of gametocidal activity, tetraploid rye Belta. In kind it is in vivo. The following applies: 1% aqueous emulsion, 10 kg/ha.
In data set [9] the test system is Tetraploider Roggen Sorte Gibrid 67. Put plainly: Field trial of gametocidal activity, tetraploid rye Gibrid 67. In kind it is in vivo. The conditions noted are these: 1% aqueous emulsion, 10 kg/ha.
From the text: as §1
Pflanzen von tetraploidem Roggen Sorte Gibrid 67 werden in der V. oder VI.

In data set [10] the test system is Diploider Roggen Sorte Gibrid 1864/74. The data set can be described thus: Field trial of gametocidal activity, diploid rye Gibrid 1864/74. The conditions noted are these: 1% aqueous emulsion, 10 kg/ha.
Data set [11] in a line: in vivo. The conditions noted are these: mouse, LD50, weisse Mäuse.
The subject of data set [12] is Hirse Sorte K-9693 Kormovoe 1. The data set can be described thus: Field trial of gametocidal activity, millet K-9693 Kormovoe 1. The following applies: 1% aqueous emulsion, 10 kg/ha; for Anzahl von Körnern der Rispe bei freier Bestäubung / Anzahl von Körnern der Rispe im Isolator / Prozentsatz der Sterilität: V. or VI. period; for Prozentsatz des Ansetzens bei freier Bestäubung: control = 100.

The nature of data set [13]: Toxicity in animal test (result in words).
Data set [14] relates to Tetraploider Roggen Sorte Jubileinaya. Put plainly: Field trial of gametocidal activity, tetraploid rye Jubileinaya. The following applies: 1% aqueous emulsion, 10 kg/ha.
For data set [15] the following is noted: in vivo.
The mark [16] stands for this setting: V. or VI. period of organogenesis.
Setting [17] is: 10 kg/ha, V. period, read-out: Prozentsatz der Sterilität.
Where [18] appears, read: V. or VI. period, listed as Beispiel 74.

The structures appear in SMILES notation. Like-named read-outs stand apart in the source and are kept apart here.

With `CC(C)OC(=S)S` [Beispiel 5, Kaliumisopropylxanthogenat], in data set [1] (setting [16]), the “Anzahl von Körnern der Ähre bei freier Bestäubung” value is 35,2 and the “Anzahl von Körnern der Ähre im Isolator” value is recorded as 2,3. The pest or weed control at 20000 g/ha in data set [1] (V. or VI. period of organogenesis, read-out: Prozentsatz der Sterilität) came out at 93.7%. In addition, the response vs control in vivo at 20000 g/ha in data set [1] was 86.2%. Moreover, in [2] (10 kg/ha, V. period), the “Anzahl von Körnern der Ähre bei freier Bestäubung” value is 24,9 and the “Anzahl von Körnern der Ähre im Isolator” value is reported as 2,3. Moreover, the pest or weed control at 10000 g/ha in data set [2] (setting [17]) worked out at 91.5%. Moreover, the response vs control in vivo in data set [2] was found to be 90.5%. In data set [3], the “Anzahl von Körnern der Ähre bei freier Bestäubung” value is on record as 51,8, the “Anzahl von Körnern der Ähre im Isolator” value was 0,3, the pest or weed control at 10000 g/ha was 99.4% and the response vs control in vivo at 10000 g/ha came out at 91.4%. In the data set on Sonnenblume Linie VK 119, the “Ansetzen von Achänen bei freier Bestäubung in %” value was 85,3%, the “Ansetzen von Achänen im Isolator bei der Bestäubung mit dem Pollengemisch in %” value is 0,0% and the Pollensterilität in % is 100%. In addition, in [4], the “Anzahl von Körnern der Rispe bei freier Bestäubung” value is given as 288,6, the “Anzahl von Körnern der Rispe im Isolator” value is listed as 0,0, the pest or weed control at 10000 g/ha is 100% and the response vs control in vivo at 10000 g/ha stood at 76%. In data set [5] (V. and VI. periods), the “Anzahl von Körnern der Ähre bei freier Bestäubung” value was 44,8, the “Anzahl von Körnern der Ähre im Isolator” value was 0,0 and the “Prozentsatz der Sterilität” value was 100%. In [5] (control = 100), the “Prozentsatz des Ansetzens bei freier Bestäubung” value is 83,5%. This compound came in with an LD50 in the data set “in vivo [6]” of 760 mg/kg. In data set [7], this compound had a Pollensterilität in % of 100%. For the same compound, in data set [7] (V. or VI. period), the “Ansetzen von Achänen im Isolator bei der Bestäubung mit dem Pollengemisch in %” value is recorded as 0,0%.

Regarding `O=C(O)c1ccccc1F` [Beispiel 24, Diätha- nolaminat der o-Fluorbenzoesäure], the “Anzahl von Körnern der Ähre bei freier Bestäubung” value in data set [8] (setting [18]) was 43,8; in data set [2] (10 kg/ha, V. period), 27,1; in data set [3] (listed as Beispiel 54) it was 54,0. In addition, the “Anzahl von Körnern der Ähre im Isolator” value in data set [8] (setting [18]) is 0,9; in [2] (10 kg/ha, V. period), 2,2; in data set [3] (listed as Beispiel 54), 0,0. Also, the pest or weed control at 10000 g/ha was 97.8% in data set [8] (V. or VI. period, read-out: Prozentsatz der Sterilität); 91.9% in [2] (setting [17]); 100% in data set [3]; 100% in data set [4]. In addition, the response vs control in vivo at 10000 g/ha in data set [8] (control = 100, read-out: Prozentsatz des Ansetzens bei freier Bestäubung) was 98.9%; in data set [3] it was 95.2%; in data set [4], 91.2%. In addition, the response vs control in vivo in data set [2] is 98.5%. Moreover, the “Anzahl von Körnern der Rispe bei freier Bestäubung” value in data set [4] is listed as 348,6. For the same compound, in [4], the “Anzahl von Körnern der Rispe im Isolator” value is reported as 0,0. Besides, in the data set on weisse Mäuse (weisse Mäuse, listed as Diäthanolaminsalz der o-Fluarbenzoesäure), the LD50 was 500 mg/kg Tiergewicht.

Turning to `O=C(O)c1ccc(O)cc1` [Beispiel 28, Monoäthanolaminat der p-Hydroxybenzoesäure], the entries for the “Prozentsatz der Sterilität” value in [9] (V. or VI. period) and in data set [10] (V. period) were 99,7% and 95,6%, respectively. Further, the entries for the “Prozentsatz des Ansetzens bei freier Bestäubung” value in [9] (control = 100) and in data set [10] (control = 100) were 93,4% and 97,7%, respectively. Moreover, in data set [10] (V. period), the “Anzahl von Körnern der Ähre bei freier Bestäubung” value is reported as 46,7. The “Anzahl von Körnern der Ähre im Isolator” value in data set [10] (V. period) is 1,8. This compound showed an LD50 in the data set “in vivo [11]” of 3200 mg/kg.

For `CCCCOC(=S)S` [Beispiel 44, Kaliumbutylxanthogenat], in data set [3], the “Anzahl von Körnern der Ähre bei freier Bestäubung” value is listed as 48,0, the “Anzahl von Körnern der Ähre im Isolator” value is 2,6, the pest or weed control at 10000 g/ha came to 96.2% and the response vs control in vivo at 10000 g/ha was determined as 84.7%. Moreover, in the data set on Sonnenblume Linie VK 119, the “Ansetzen von Achänen bei freier Bestäubung in %” value was 81,5%, the “Ansetzen von Achänen im Isolator bei der Bestäubung mit dem Pollengemisch in %” value is listed as 0,0% and the Pollensterilität in % is 100%. In addition, the LD50 in “in vivo [6]” worked out at 760 mg/kg. Further, in data set [12], the “Anzahl von Körnern der Rispe bei freier Bestäubung” value is recorded as 134,6, the “Anzahl von Körnern der Rispe im Isolator” value is on record as 0,0, the “Prozentsatz der Sterilität” value was determined as 100% and the “Prozentsatz des Ansetzens bei freier Bestäubung” value is reported as 91,2%. In [7], the Pollensterilität in % was 100%. In data set [7] (V. or VI. period), the “Ansetzen von Achänen bei freier Bestäubung in %” value is 85,3% and the “Ansetzen von Achänen im Isolator bei der Bestäubung mit dem Pollengemisch in %” value is given as 0,0%.

With `OCC(CO)(CO)CO` [Beispiel 58, Pentaerythrit], in data set [13], the “Toxizität im Tierversuch” value was “praktisch nichttoxische”. In data set [14] (V. or VI. period), the “Anzahl von Körnern der Ähre bei freier Bestäubung” value was 45,6 and the “Anzahl von Körnern der Ähre im Isolator” value is recorded as 0,4. The “Prozentsatz des Ansetzens bei freier Bestäubung” value in data set [14] (control = 100) is recorded as 94,4%.

For `OCC(O)CSc1ccc(F)cc1` (stereo not shown) [Beispiel I3], in [1] (setting [16]), the “Anzahl von Körnern der Ähre bei freier Bestäubung” value is recorded as 38,2 and the “Anzahl von Körnern der Ähre im Isolator” value was 3,2. Further, in data set [1], the response vs control in vivo at 20000 g/ha came to 94.3%. For the same compound, in data set [2] (10 kg/ha, V. period), the “Anzahl von Körnern der Ähre bei freier Bestäubung” value was 26,4 and the “Anzahl von Körnern der Ähre im Isolator” value is on record as 2,0. Further, the percent sterility at 10000 g/ha in [2] (setting [17]) turned out to be 92.3%. Moreover, in data set [2], the response vs control in vivo stood at 96%. Besides, in the data set “in vivo [11]”, the LD50 is ~400 mg/kg. Also, the LD50 in the data set on weisse Mäuse (mouse, in vivo) was 400 mg/kg Tiergewicht. In [12], the “Anzahl von Körnern der Rispe bei freier Bestäubung” value is on record as 128,7, the “Anzahl von Körnern der Rispe im Isolator” value was 0,0, the “Prozentsatz der Sterilität” value was determined as 100% and the “Prozentsatz des Ansetzens bei freier Bestäubung” value was 87,7%.

As for `OCC(CO)(CO)CBr` [Brommethyl-tri(oxymethyl)-methan], in data set [13], the “Toxizität im Tierversuch” value is on record as “praktisch nichttoxische”.

On to `CCC(CO)(CO)CBr` [I-Brom-2,2-di-methylol-butan], for which the “Toxizität im Tierversuch” value in data set [15] is on record as “praktisch nichttoxische”.

Take `CCC(CO)(CO)CO` [Trimethylolpropan]: in data set [15], the “Toxizität im Tierversuch” value is on record as “praktisch nichttoxische”.
